Test results: the supplement of paper PMC13380429

Columns and labels:
Conditions in all cases: 72 h
Caco-2 [1] = experiment: cell viability relative to DMSO; higher = less toxic
Calu-3 [2] = experiment: as above
Caco-2 [3] = experiment: relative viability EC50 (midpoint between 100% and the lowest measured viability); higher = less toxic
Calu-3 [4] = experiment: as above
Caco-2 [5] = experiment: drug sensitivity score (DSS) for viability; higher = more toxic; extreme values may be limits of the assay
Calu-3 [6] = experiment: as above
HepG2 [7] = experiment: cell viability relative to DMSO; higher = less toxic
U2OS [8] = experiment: as above
Vero E6 [9] = experiment: as above
U2OS [10] = experiment: relative viability EC50 (midpoint between 100% and the lowest measured viability); higher = less toxic
Vero E6 [11] = experiment: as above
HepG2 [12] = experiment: drug sensitivity score (DSS) for viability; higher = more toxic; extreme values may be limits of the assay
U2OS [13] = experiment: as above
Vero E6 [14] = experiment: as above
HepG2 [15] = experiment: relative viability EC50 (midpoint between 100% and the lowest measured viability); higher = less toxic

| Structure (SMILES) | cell viability (Caco-2 [1]; 1 nM) [%] | cell viability (Caco-2 [1]; 10 nM) [%] | cell viability (Caco-2 [1]; 100 nM) [%] | cell viability (Caco-2 [1]; 1000 nM) [%] | cell viability (Caco-2 [1]; 10000 nM) [%] | cell viability (Calu-3 [2]; 1 nM) [%] | cell viability (Calu-3 [2]; 10 nM) [%] | cell viability (Calu-3 [2]; 100 nM) [%] | cell viability (Calu-3 [2]; 1000 nM) [%] | cell viability (Calu-3 [2]; 10000 nM) [%] | relative viability EC50 (Caco-2 [3]) [µM] | relative viability EC50 (Calu-3 [4]) [µM] | drug sensitivity score (Caco-2 [5]) | drug sensitivity score (Calu-3 [6]) | cell viability (HepG2 [7]; 1 nM) [%] | cell viability (HepG2 [7]; 10 nM) [%] | cell viability (HepG2 [7]; 100 nM) [%] | cell viability (HepG2 [7]; 1000 nM) [%] | cell viability (HepG2 [7]; 10000 nM) [%] | cell viability (U2OS [8]; 1 nM) [%] | cell viability (U2OS [8]; 10 nM) [%] | cell viability (U2OS [8]; 100 nM) [%] | cell viability (U2OS [8]; 1000 nM) [%] | cell viability (U2OS [8]; 10000 nM) [%] | cell viability (Vero E6 [9]; 1 nM) [%] | cell viability (Vero E6 [9]; 10 nM) [%] | cell viability (Vero E6 [9]; 100 nM) [%] | cell viability (Vero E6 [9]; 1000 nM) [%] | cell viability (Vero E6 [9]; 10000 nM) [%] | relative viability EC50 (U2OS [10]) [µM] | relative viability EC50 (Vero E6 [11]) [µM] | drug sensitivity score (HepG2 [12]) | drug sensitivity score (U2OS [13]) | drug sensitivity score (Vero E6 [14]) | relative viability EC50 (HepG2 [15]) [nM] |
| --- | --- | --- | --- | --- | --- | --- | --- | --- | --- | --- | --- | --- | --- | --- | --- | --- | --- | --- | --- | --- | --- | --- | --- | --- | --- | --- | --- | --- | --- | --- | --- | --- | --- | --- | --- |
| Cc1ccc(NC(=O)C2(c3ccc4c(c3)OC(F)(F)O4)CC2)nc1-c1cccc(C(=O)O)c1 [lumacaftor] | 106 | 103 | 106 | 92.3 | 93.8 | 113 | 103 | 101 | 98.6 | 108 | > 10 | > 10 | 0 | 0 |  |  |  |  |  |  |  |  |  |  |  |  |  |  |  |  |  |  |  |  |  |
| O=C(CC(c1ccccc1)c1ccccc1)N1CCN(C(c2ccccc2)c2ccccc2)CC1 [Z160] | 99.9 | 103 | 97.1 | 92.9 | 67.8 | 104 | 92.8 | 104 | 93.9 | 114 |  | > 10 | 2.6 | 0 | 88.7 | 104 | 88.5 | 95.6 | 57.7 | 101 | 99 | 99.1 | 97.2 | 88.6 | 93.7 | 99.1 | 94.9 | 99.8 | 100 | > 10 | > 10 | 2.9 | 0.1 | 0 |  |
| CCCCCS(=O)(=O)CCCCCCCCCCn1c(-c2ccc(O)cc2)c(C)c2cc(O)ccc21 | 86.2 | 98.7 | 97.7 | 96.8 | 55.5 | 101 | 98.3 | 100 | 106 | 76.5 |  | > 10 | 2.8 | 0.6 | 104 | 92.3 | 98.5 | 96.6 | 33.8 | 99.2 | 96.6 | 100 | 101 | 91.5 | 95 | 99.3 | 100 | 98.1 | 77.6 | > 10 | > 10 | 4.1 | 0 | 1 | 2770 |
| CCN1CCN(c2cc3c(cc2F)c(=O)c(C(=O)O)cn3C2CC2)CC1 [enrofloxacin] |  |  |  |  |  |  |  |  |  |  |  |  |  | 0 |  |  |  |  |  |  |  |  |  |  |  |  |  |  |  |  |  | 0 | 0 | 0 |  |
| CCOC(=O)c1ncc2[nH]c3cccc(OC(C)C)c3c2c1C | 101 | 113 | 109 | 103 | 75 | 88.7 | 112 | 99.1 | 104 | 74.9 | > 10 |  | 0.8 | 0.8 | 114 | 102 | 137 | 98.8 | 109 |  |  |  |  |  |  |  |  |  |  |  |  | 0 |  |  | > 10000 |
| C=C(c1ccccc1OCc1cccc(Cl)c1)n1ccnc1 [croconazole] | 102 | 104 | 90.9 | 87.8 | 69.6 | 94.4 | 104 | 97.5 | 93.1 | 92.1 |  | > 10 | 2.5 | 0 | 102 | 101 | 102 | 110 | 88 | 96.2 | 104 | 93.2 | 103 | 90 | 102 | 97 | 112 | 107 | 105 | > 10 | > 10 | 0 | 0 | 0 | > 10000 |
| c1coc(CNc2ncnc3[nH]cnc23)c1 [kinetin] | 111 | 104 | 106 | 98.9 | 96.6 | 95.7 | 100 | 101 | 98.4 | 99.3 | > 10 | > 10 | 0 | 0 | 110 | 108 | 99 | 98.7 | 109 |  |  |  |  |  |  |  |  |  |  |  |  | 0 |  |  | > 10000 |
| CC(=O)c1ccc2c(c1)C(=O)C1(CC1)O2 [spizofurone] |  |  |  |  |  |  |  |  |  |  |  |  |  | 0 |  |  |  |  |  |  |  |  |  |  |  |  |  |  |  |  |  | 0 | 0 | 0 |  |
| O=C(c1cccc(Cl)c1F)N1CCN(Cc2cccc(Nc3nccs3)n2)CC1 [MK-8745] | 92.1 | 94.2 | 91.7 | 86.5 | 70.7 | 92.6 | 88.5 | 92 | 85.1 | 92.2 |  | > 10 | 2.8 | 0 | 105 | 115 | 101 | 54.7 | 37.7 | 102 | 99.5 | 98.5 | 98.4 | 69.1 | 99.2 | 101 | 99 | 90.2 | 78 |  | > 10 | 8.7 | 1.6 | 1.6 | 676 |
| CN(C)CCCC1(c2ccc(F)cc2)OCc2cc(C#N)ccc21 (centres undefined) [citalopram] |  |  |  |  |  |  |  |  |  |  |  |  |  | 0 |  |  |  |  |  |  |  |  |  |  |  |  |  |  |  |  |  | 0 | 0 | 0 |  |
| C[C@H]1O[C@@H](n2cc(F)c(=O)[nH]c2=O)[C@H](O)[C@@H]1O [doxifluridine] | 82.5 | 106 | 93.3 | 99.3 | 65.6 | 98.6 | 116 | 91.3 | 98.9 | 90.9 |  | > 10 | 1.7 | 0 | 96.6 | 96.1 | 76.3 | 108 | 56.6 | 99.9 | 99.4 | 100 | 101 | 90.6 | 108 | 96.1 | 103 | 105 | 87.5 | > 10 | > 10 | 1.8 | 0 | 0 |  |
